Here are results for 22 molecules from US11919902B2, “Aryl-bipyridine amine derivatives as phosphatidylinositol phosphate kinase inhibitors” (HiberCell, Inc., priority 2017, dated 2024).

One assay deals with T1, GST tagged PIP4KtypeIIB (Homo sapiens, UniProt P78356).
T1 construct: made in house; host or cells: E. coli
T1 sequence (P78356 1-416): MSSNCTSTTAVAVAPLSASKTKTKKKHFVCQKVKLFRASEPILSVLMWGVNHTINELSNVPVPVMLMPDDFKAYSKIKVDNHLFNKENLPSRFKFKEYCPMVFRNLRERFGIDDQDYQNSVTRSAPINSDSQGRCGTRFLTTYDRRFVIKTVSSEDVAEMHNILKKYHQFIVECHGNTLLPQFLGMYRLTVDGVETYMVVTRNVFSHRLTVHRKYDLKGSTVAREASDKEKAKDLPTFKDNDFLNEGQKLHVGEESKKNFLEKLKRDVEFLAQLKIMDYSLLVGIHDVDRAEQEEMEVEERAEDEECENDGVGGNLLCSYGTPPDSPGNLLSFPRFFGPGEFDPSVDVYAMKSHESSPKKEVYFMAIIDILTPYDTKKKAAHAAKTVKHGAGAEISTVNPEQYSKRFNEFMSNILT
The experiment in a line: Trans-FI P kinase assay PIP4K2B (PIP4KtypeIIB inhibition assay). Format: biochemical. The note with it: Table 4; compounds listed under IC50 range headings; 100 uM GTP, 5 nM PIP4KIIB; read-out: Trans-FI P kinase assays: PIP4K2B IC50. In short, it runs like this:
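Transcreener FI fluorescence, converted to GDP by calibration, tracked product from 5 nM E. coli-expressed GST-PIP4KIIB acting on 80 uM PI5P (DOPE carrier) with 100 uM GTP. Compound (top 4.8 uM final, 5% DMSO) was preincubated 1 h at 27 C before the 2 h reaction; IC50 fitted from residual activity.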

The target of assay [1] is T2, PIP4K2A (full length protein, SignalChem) (Homo sapiens, UniProt P48426).
T2 construct: 4 nM PIP4K2A (full length protein, SignalChem); purchased SignalChem
T2 sequence (P48426 1-406): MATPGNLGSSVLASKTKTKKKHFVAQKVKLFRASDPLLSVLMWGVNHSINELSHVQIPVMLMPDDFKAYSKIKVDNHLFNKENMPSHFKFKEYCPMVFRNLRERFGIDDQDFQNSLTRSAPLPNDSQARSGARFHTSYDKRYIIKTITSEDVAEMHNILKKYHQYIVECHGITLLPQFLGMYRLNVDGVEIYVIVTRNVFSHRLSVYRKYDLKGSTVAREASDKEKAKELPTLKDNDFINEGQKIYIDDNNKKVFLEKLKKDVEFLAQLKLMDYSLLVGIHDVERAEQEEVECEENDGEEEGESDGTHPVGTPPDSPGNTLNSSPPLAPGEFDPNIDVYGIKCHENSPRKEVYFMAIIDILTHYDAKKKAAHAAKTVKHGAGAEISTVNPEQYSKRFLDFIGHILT
The experiment in a line: Kinase Assay PIP4K2 A (Sprint); ADP-Glo biochemical assay. The note with it: Table 2; compounds listed under IC50 range headings. An outline of the steps: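 ADP-Glo luminescence detected ADP after a 1 h RT reaction started with 60 μM ATP solution. Before that, full-length PIP4K2A (4 nM in mix) with 100 μM PI(5)P diC8 was pre-incubated 15 min with compounds in MOPS buffer pH 7.2, 25 mM MgCl2, 0.005% Tween 20. IC50 derived from % inhibition relative to DMSO over 10 three-fold concentrations.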
(In general: ADP-Glo first removes unused ATP, then detects ADP through luciferase.)

The term IC50 denotes the concentration needed to halve the response being measured.

As for `O=C1CCCN1c1ccc(-c2cncc(-c3cnc4ncc(-c5cncnc5)n4c3)c2)cc1` [Example 341, 1-(4-(5-(3-(pyrimidin-5-yl)imidazo[1,2-a]pyrimidin-6-yl)pyridin-3-yl)phenyl)pyrrolidin-2-one], the IC50 (at GST tagged PIP4KtypeIIB; in assay [1]) was 1000 to 2500 nM in each case.

As for `Cc1ccc2c(c1)OCCN2C(=O)c1cc2c(-c3cncc(-c4ccc(N5CCCC5=O)cc4)c3)ccnc2[nH]1` [Example 339, 1-(4-(5-(2-(7-methyl-3,4-dihydro-2H-benzo[b][1,4]oxazine-4-carbonyl)-1H-pyrrolo[2,3-b]pyridin-4-yl)pyridin-3-yl)phenyl)pyrrolidin-2-one], the IC50 (at GST tagged PIP4KtypeIIB; in assay [1]) was 100 to 1000 nM in each case.

As for `CC[C@@H](C)n1cnnc1-c1ccc(-c2cncc(-c3ccnc4c3cc3n4CCN(C)C3=O)c2)cc1` [Example 361, (R)-4-(5-(4-(4-(sec-butyl)-4H-1,2,4-triazol-3-yl)phenyl)pyridin-3-yl)-7-methyl-8,9-dihydropyrido[3′,2′:4,5]pyrrolo[1,2-a]pyrazin-6(7H)-one], the IC50 on GST tagged PIP4KtypeIIB was in the range of 10 to 100 nM; in assay [1] it was 100 to 1000 nM.

For `O=C(Nc1ccccc1)c1cc2c(-c3cncc(-c4ccc(N5CCCC5=O)cc4)c3)ccnc2[nH]1` [Example 329, 4-(5-(4-(2-oxopyrrolidin-1-yl)phenyl)pyridin-3-yl)-N-phenyl-1H-pyrrolo[2,3-b]pyridine-2-carboxamide], the values for the IC50 (on GST tagged PIP4KtypeIIB; in assay [1]) were 10 to 100 nM and 2500 to 5000 nM, respectively.

Regarding `O=C(COc1cccc2c1C(=O)N(C1CCC(=O)NC1=O)C2=O)NCCCCCCCCNC(=O)c1cc2c(-c3cncc(-c4ccc(N5CCCC5=O)cc4)c3)ccnc2[nH]1` (centres unmarked) [Example 395, N-(8-(2-((2-(2,6-dioxopiperidin-3-yl)-1,3-dioxoisoindolin-4-yl)oxy)acetamido)octyl)-4-(5-(4-(2-oxopyrrolidin-1-yl)phenyl)pyridin-3-yl)-1H-pyrrolo[2,3-b]pyridine-2-carboxamide], the values for the IC50 (on GST tagged PIP4KtypeIIB; in assay [1]) were 100 to 1000 nM and 1000 to 2500 nM, respectively.

`CC(C)c1cnoc1-c1ccc(-c2cncc(-c3ccnc4c3cc3n4CCN(C)C3=O)c2)cc1` [Example 363, 4-(5-(4-(4-isopropylisoxazol-5-yl)phenyl)pyridin-3-yl)-7-methyl-8,9-dihydropyrido[3′,2′:4,5]pyrrolo[1,2-a]pyrazin-6(7H)-one]: the figures for the IC50 (on GST tagged PIP4KtypeIIB; in assay [1]) were 10 to 100 nM and 100 to 1000 nM, respectively.

Regarding `CC(C)(O)c1cnc2[nH]c(C3CC3)c(-c3cncc(-c4ccc(N5CCCC5=O)cc4)c3)c2c1` [Example 338, 1-(4-(5-(2-cyclopropyl-5-(2-hydroxypropan-2-yl)-1H-pyrrolo[2,3-b]pyridin-3-yl)pyridin-3-yl)phenyl)pyrrolidin-2-one], the IC50 was 10 to 100 nM at GST tagged PIP4KtypeIIB and 100 to 1000 nM in assay [1].

Take `O=C1CCCN1c1ccc(-c2cncc(-c3ccnc4c3cc3n4CCN(c4ccc5c(n4)OCCO5)C3=O)c2)cc1` [Example 308, 7-(2,3-dihydro-[1,4]dioxino[2,3-b]pyridin-6-yl)-4-(5-(4-(2-oxopyrrolidin-1-yl)phenyl)pyridin-3-yl)-8,9-dihydropyrido[3′,2′:4,5]pyrrolo[1,2-a]pyrazin-6(7H)-one]: the values for the IC50 (at GST tagged PIP4KtypeIIB; in assay [1]) were 1 to 10 nM and 100 to 1000 nM, respectively.

On to `CC(C)c1cnnn1-c1ccc(-c2cncc(-c3ccnc4c3cc3n4CCN(c4ccccn4)C3=O)c2)cc1` [Example 357, 4-(5-(4-(5-isopropyl-1H-1,2,3-triazol-1-yl)phenyl)pyridin-3-yl)-7-(pyridin-2-yl)-8,9-dihydropyrido[3′,2′:4,5]pyrrolo[1,2-a]pyrazin-6(7H)-one], for which the results for the IC50 (on GST tagged PIP4KtypeIIB; in assay [1]) were 1 to 10 nM and 5 to 100 nM, respectively.

Turning to `C[C@@H]1C[C@@H](C(C)(C)O)N(C(=O)c2cc3c(-c4cncc(-c5ccc(N6CCCC6=O)cc5)c4)ccnc3[nH]2)C1` [Example 397], the IC50 (at GST tagged PIP4KtypeIIB; in assay [1]) was 100 to 1000 nM each time.

In the case of `CC(C)n1cncc1-c1ccc(-c2cncc(-c3ccnc4c3cc3n4CCN(C)C3=O)c2)cc1` [Example 359, 4-(5-(4-(1-isopropyl-1H-imidazol-5-yl)phenyl)pyridin-3-yl)-7-methyl-8,9-dihydropyrido[3′,2′:4,5]pyrrolo[1,2-a]pyrazin-6(7H)-one], the IC50 (at GST tagged PIP4KtypeIIB; in assay [1]) was 100 to 1000 nM throughout.

Turning to `Cc1nc(CNC(=O)c2cc3c(-c4cncc(-c5ccc(N6CCCC6=O)cc5)c4)ccnc3[nH]2)oc1C` [Example 390], the IC50 on GST tagged PIP4KtypeIIB was in the range of 10 to 100 nM; in assay [1], 5 to 100 nM.

As to `CNC(=O)c1cc2c(-c3cnc(N)c(-c4ccc(-c5nncn5C(C)C)cc4)c3)ccnc2o1` [Example 362, 4-(6-amino-5-(4-(4-isopropyl-4H-1,2,4-triazol-3-yl)phenyl)pyridin-3-yl)-N-methylfuro[2,3-b]pyridine-2-carboxamide], the results for the half-maximal inhibitory concentration (IC50) (at GST tagged PIP4KtypeIIB; in assay [1]) were 10 to 100 nM and 100 to 1000 nM, respectively.

Take `Cc1cc(-c2cncc(-c3ccc(N4CCCC4=O)cc3)c2)n2cnnc2n1` [Example 336, 1-(4-(5-(7-methyl-[1,2,4]triazolo[4,3-a]pyrimidin-5-yl)pyridin-3-yl)phenyl)pyrrolidin-2-one]: the IC50 was over 5000 nM at GST tagged PIP4KtypeIIB and under 5000 nM in assay [1].

`CC(C)n1ccnc1-c1ccc(-c2cncc(-c3ccnc4c3cc3n4CCN(C)C3=O)c2)cc1` [Example 364, 4-(5-(4-(1-isopropyl-1H-imidazol-2-yl)phenyl)pyridin-3-yl)-7-methyl-8,9-dihydropyrido[3′,2′:4,5]pyrrolo[1,2-a]pyrazin-6(7H)-one]: the IC50 at GST tagged PIP4KtypeIIB is 1000 to 2500 nM; in assay [1], under 5000 nM.

With `Cc1c[nH]c2nccc(-c3cncc(-c4ccc(N5CCCC5=O)cc4)c3)c12` [Example 323, 1-(4-(5-(3-methyl-1H-pyrrolo[2,3-b]pyridin-4-yl)pyridin-3-yl)phenyl)pyrrolidin-2-one], the IC50 lay in the range of 100 to 1000 nM on GST tagged PIP4KtypeIIB and 1000 to 2500 nM in assay [1].

With `CC(C)c1cnnn1-c1ccc(-c2cncc(-c3ccnc4c3cc3n4CCN(C)C3=O)c2)cc1` [Example 368, 4-(5-(4-(5-isopropyl-1H-1,2,3-triazol-1-yl)phenyl)pyridin-3-yl)-7-methyl-8,9-dihydropyrido[3′,2′:4,5]pyrrolo[1,2-a]pyrazin-6(7H)-one], the IC50 at GST tagged PIP4KtypeIIB was 1 to 10 nM; in assay [1], 5 to 100 nM.

As to `CNC(=O)c1[nH]c2nccc(-c3cncc(-c4ccc(N5CCCC5=O)cc4)c3)c2c1C` [Example 313, N,3-dimethyl-4-(5-(4-(2-oxopyrrolidin-1-yl)phenyl)pyridin-3-yl)-1H-pyrrolo[2,3-b]pyridine-2-carboxamide], the IC50 at GST tagged PIP4KtypeIIB lay within 100 to 1000 nM; in assay [1], 1000 to 2500 nM.

With `O=C(Nc1ccccn1)c1cc2c(-c3cncc(-c4ccc(N5CCCC5=O)cc4)c3)ccnc2[nH]1` [Example 312, 4-(5-(4-(2-oxopyrrolidin-1-yl)phenyl)pyridin-3-yl)-N-(pyridin-2-yl)-1H-pyrrolo[2,3-b]pyridine-2-carboxamide], the IC50 fell in the range of 10 to 100 nM at GST tagged PIP4KtypeIIB and 1000 to 2500 nM in assay [1].

Regarding `CN1CCn2c(cc3c(-c4cncc(-c5ccc(C(=O)N6CCC7(CC7)C6)cc5)c4)ccnc32)C1=O` [Example 230, 4-(5-(4-(5-azaspiro[2.4]heptane-5-carbonyl)phenyl)pyridin-3-yl)-7-methyl-8,9-dihydropyrido[3′,2′:4,5]pyrrolo[1,2-a]pyrazin-6(7H)-one], the IC50 (at GST tagged PIP4KtypeIIB; in assay [1]) was 100 to 1000 nM in each case.

In the case of `O=C(NCc1ncco1)c1cc2c(-c3cncc(-c4ccc(N5CCCC5=O)cc4)c3)ccnc2[nH]1` [Example 330, N-(oxazol-2-ylmethyl)-4-(5-(4-(2-oxopyrrolidin-1-yl)phenyl)pyridin-3-yl)-1H-pyrrolo[2,3-b]pyridine-2-carboxamide], the IC50 fell in the range of 10 to 100 nM at GST tagged PIP4KtypeIIB and 100 to 1000 nM in assay [1].

In the case of `O=C(Nc1ccncc1)c1cc2c(-c3cncc(-c4ccc(N5CCCC5=O)cc4)c3)ccnc2[nH]1` [Example 314, 4-(5-(4-(2-oxopyrrolidin-1-yl)phenyl)pyridin-3-yl)-N-(pyridin-4-yl)-1H-pyrrolo[2,3-b]pyridine-2-carboxamide], the IC50 at GST tagged PIP4KtypeIIB lay in the range of 10 to 100 nM; in assay [1], 1000 to 2500 nM.
